Numbered stars: 1 amine (or outer) side, 2 acyl side, 3 side chain; on linkers, the order of the positions; unused ones are H or OH. Square brackets hold non-standard residues; d marks the D form. Peptide text beside a SMILES is read from it. dAla(ψthiazole) = C[C@@H](N[*:1])c1nc(C(=O)[*:2])cs1; Trp(4-OMe) = COc1cccc2[nH]cc(C[C@H](N)C(=O)O)c12; Dha = C=C(N)C(=O)O; Sar = CNCC(=O)O
Columns and labels:
[1] = tested on: mouse embryonic fibroblasts from p27^kip1 knockout mice; experiment: Apoptosis (sub-G1 fraction) by flow cytometry in p27 knockout MEF; type: cell-based; settings: for apoptosis in p27 knockout MEF: sub G1 fraction
From the text: Next the inventors tested whether the stabilization of p27 was indeed required for the apoptosis inducing function of Argyrin A or was merely a consequence of proteasome inhibition. For this the inventors treated immortalized mouse embryonic fibroblasts from p27^kip1 wildtype or knockout mice with Argyrin A or the proteasome inhibitor bortezomib and assayed cell cycle distribution and apoptosis by flow cytometry. […] These differences in sensitivity in response to Argyrin A treatment were not due to differences in the accumulation of other proteasomal substrates in p27 wildtype and knockout cells as p53 and p21 levels increased in both cell lines in response to Argyrin A (FIG. 6B). To extend this observation to human cancer cells the inventors reduced the levels of p27^kip1 in HeLa cells using p27^kip1 specific siRNA.
The results shown are the average numbers for six independent experiments. b+d) Wildtype (b) and p27 knockout (d) MEF were treated with Argyrin A or transfected with siRNAs specific for the β1, β2 or β5 subunit of the proteasome for 24 hours. The graphs show the remaining catalytic activity of the different proteasome subunits after Argyrin A or siRNA treatment compared to an untreated control (n=3). The western blots show the expression of the β1, β2 or β5 subunit of the proteasome in proliferating cells and after treatment with siRNAs for a representative experiment. c+e) Flow cytometric measurements of the number of apoptotic cells (sub-G1 fraction) after Argyrin A or siRNA treatment in wildtype (c) or p27 knockout (E) MEF. f) HeLa cells were treated with Argyrin A or siRNA against p27 or Argyrin A and siRNA against p27 for either 24 or 48 hours.
(§1) MTT assays were done as previously described (Sasse, F. et al. Argyrins, immunosuppressive cyclic peptides from myxobacteria. I. Production, isolation, physico-chemical and biological properties. J Antibiot (Tokyo) 55, 543-51 (2002)). TUNEL staining of tissue sections was performed on 10 micrometer sections which were deparafinised and treated as recommended by the manufacturer. (In Situ Cell Death Detection Kit, Fluorescein; ROCHE, Cat #11 684 795 910). Flow cytometric analysis of cultured cells was done using a Becton Dickinson fluorescence cytometer as previously described (Malek, N. P. et al. A mouse knock-in model exposes sequential proteolytic pathways that regulate p27^Kip1 in G1 and S phase. Nature 413, 323-7 (2001)). Analysis of the distribution of cells in the cell cycle and the sub-G1 fraction was done using Cell Quest software. A histone-associated-DNA-fragments ELISA was used to determine the number of apoptotic cells according to manufacturers instructions (Roche #11 774425001).

MCF7 cells = experiment: Gene expression signature (DNA microarray) of MCF7 cells; type: cell-based, human
Procedure: The inventors decided to compare the cellular responses of cells treated with Argyrin A or bortezomib directly. To this end the inventors determined the gene expression signature of MCF7 cells in response to Argyrin A or bortezomib and compared the resulting gene expression profiles. […] As shown in FIG. 2G the gene expression profiles of MCF7 cells which were treated with either bortezomib or Argyrin A differ dramatically. While bortezomib treatment led to changes in the expression of more than 10900 genes, only about 500 genes changed in response to Argyrin A treatment. Among these genes, 311 were affected by both bortezomib and Argyrin A, respectively.
Quality and integrity of the total RNA isolated was controlled by running all samples on an Agilent Technologies 2100 Bioanalyzer (Agilent Technologies; Waldbronn, Germany). For biotin-labelled target synthesis starting from 3 μg of total RNA, reactions were performed using standard protocols supplied by the manufacturer (Affymetrix; Santa Clara, Calif.). In each case 10 μg of labelled cRNA were hybridized to an identical lot of Affymetrix GeneChips HG-U133 2.0 for 16 hours at 45° C. After hybridisation the GeneChips were washed, stained with SA-PE and read using an Affymetrix GeneChip fluidic station and scanner.
Analysis of microarray data was performed using the Affymetrix GCOS 1.2 software. […]

[2] = tested on: SW480 colon carcinoma xenotransplant tumours; experiment: SW480 xenotransplant tumours in nu/nu mice; type: in vivo, mouse; settings: for proteasome activity in the primary tumour tissue: single dose
Procedure: At the indicated timepoints 20S proteasome was isolated from peripheral blood cells and the activity of the different proteasome subunits was determined as described (FIG. 1d). b) SW480 colon carcinoma cell lines mixed with matrigel were injected under the skin of nu/nu mice to establish xenotransplant tumours. Treatment with Argyrin A or bortezomib was started when these tumours reached a volume of 200 mm^3. […] The activity of the respective proteasome subunits was determined as described previously (FIG. 1d). e) Determination of the number of p27^kip1 positive cells in tumour tissue after Argyrin A treatment. The pictures show representative samples of immunohistochemical stainings for p27 in tumour tissues after 10 days of Argyrin A treatment. f) Detection of apoptotic cells in xenotransplanted tumours by TUNEL staining of tumour tissues after treatment with Argyrin A or bortezomib. At least 200 cells were counted on five independent sections to quantitate the number of apoptotic cells.
as §1
Proteasome assays using proteasome purified from cells or tissues were carried out in a 100 μL reaction volume containing 20 μg proteasome extract, 50 mmol/L EDTA and 60 μmol/L fluorogenic substrate (chymotrypsin-like (CT-L), trypsin-like (T-L) or caspase-like (C-L)) in ATP/DTT lysis buffer at 37° C. The assay buffer was supplemented with a final concentration of 0.05% SDS for the evaluation of the chymotrypsin-like activity and caspase-like activity. The rate of cleavage of fluorogenic peptide substrates was determined by monitoring the fluorescence of released amonomethylcoumarin using a Victor 1420 Multilabel counter (Wallac) at an excitation wavelength of 395 nm and emission wavelength of 460 nm over a period of 60 min.
1×10^7 SW480 cells or HCT116 cells (in 100 microliters DMEM medium and 100 microliters matrigel) were s.c. injected into the flanks of NMRI nu/nu mice. Tumours grew for approx. 18 days until they reached appropriate size (200 mm3). Tumour size was measured with a digital calliper and calculated with the help of the following formula: (Length×width2)*π/6. All experiments were done after review and in accordance with the animal rights and protection agencies of Lower Saxony, Germany.

| SMILES | apoptosis in p27 knockout MEF [1] | apoptosis in p27 knockout MEF ([1]; listed as Bortezomib) | number of genes with changed expression (MCF7 cells) | proteasome activity in the primary tumour tissue [2] | p27^kip1 knockout fibroblasts undergoing apoptotic cell death ([1]; after 60 hours of treatment) | apoptosis, share of all fibroblasts derived from p27 knockout mice ([1]; comparable levels of proteasome inhibition, 24 hours) | size of the xenotransplanted tumours ([2]; SW480, 0.15 mg/kg i.p. every three days) | apoptotic cell death, share of all tumor cells ([2]; SW480 xenograft, TUNEL staining) | p27^kip1 in tumour tissue ([2]; SW480 xenograft, immunohistochemistry) |
| --- | --- | --- | --- | --- | --- | --- | --- | --- | --- |
| CC(C)C[C@H](NC(=O)[C@H](Cc1ccccc1)NC(=O)c1cnccn1)B(O)O [bortezomib, reference compound] | massive apoptosis | induced apoptosis | more than 10900 genes | significant reduction | – | – | – | – | – |
| C=C1NC(=O)[C@@H](C)NC(=O)CNC(=O)[C@H](Cc2c[nH]c3cccc(OC)c23)NC(=O)[C@H](Cc2c[nH]c3ccccc23)NC(=O)c2csc(n2)[C@@H](C)NC(=O)CN(C)C1=O [Argyrin A] (cyclo(W[Trp(4-OMe)]G[dA][Dha][Sar][dAla(ψthiazole)])) | – | – | about 500 genes | significant reduction | ten | 5% | significant reduction | > 60% | induction |

— US8217071B2, “Use of inhibitors of the degradation of p27, in particular Argyrin and derivatives thereof, for the treatment of proliferative diseases” (Helmholtz Zentrum für Infektionsforschung GmbH, priority 2007, dated 2012)
